Assay results from patent publication US7378387B2, “Method of suppressing immune response by reducing intracellular content of glutathione in macrophages and monocytes” (Ajinomoto Co., Inc., priority 1997, dated 2008).

How the values were obtained:
[1] = system: NO; assay: NO production from macrophages induced through administration (Example 9, Table 1); assay type: in vivo, DBA/2 mice; details: LPS 100 ng/ml, IFNγ 100 units/ml
Protocol: A stimulator was added to 1×10^5 MΦ, and the incubation was conducted at 37° C. for 2 days in a CO2 incubator. After the completion of the centrifugation, the culture supernatant was collected.
One hundred microliters of a Griess-Romijn reagent (supplied by Waco Pure Chemical Industries, Ltd.) adjusted to a concentration of 50 mg/ml in distilled water were added to 100 μl of the culture supernatant, and the reaction was conducted at room temperature for 15 minutes. After the completion of reaction, an absorbance of 540 nm was measured. NaNO2 was used as a standard.
This was clarified by harvesting peritoneal exudate cells 20 hours after the completion of the administration, adhering the cells to the plastic surface, then reacting the cells with 10 μM of monochlorobimane at 37° C. for 30 minutes, and analyzing the reaction product with ACAS. The increase in the amounts of oxidative macrophages can easily be determined visually from the fact that almost no reaction product with monochlorobimane is observed, namely, a gray or blue image is provided, and the increase in the amounts of reductive macrophages from the fact that a red or yellow image is provided respectively. […] Meanwhile, the same examination was conducted by harvesting peritoneal exudate cells after 20 hours of the administration of 2 mg of N-acetylcystine (NAC).
(§1) Thus, the peritoneal exudate adherent cells were incubated in the following manner, and the amounts of NO and IL-12 produced in the culture supernatant were measured. With respect to the amount of IL-6, the amount of IL-6 produced spontaneously in the absence of a stimulator was measured.
(§2) Cells: The peritoneal exudate adherent cells obtained by the stimulation, namely, the macrophages were added to a 96-well microplate in an amount of 1×10^5 cells/200 μl each.
(§3) Medium: Phenol red-free RPMI 1640: 200 μl/well
(§4) LPS: Lipopolysaccharide (made by Sigma Co.) (origin: E. coli) 100 ng/ml

[2] = system: IL-12; assay: IL-12 production from macrophages induced through administration (Example 9, Table 1); assay type: in vivo, DBA/2 mice; details: LPS 100 ng/ml, IFNγ 100 units/ml
Protocol: The amount of IL-12 was determined through bioassay using cells of human T cell strain 2D6 (J. Leukocyte Biology, vol. 61, p. 346, 1997).
2D6 cells which had been incubated in an RPMI 1640 medium containing 500 pg/ml of recombinant human IL-12, 50 μM of 2-mercaptoethanol and 10% FCS (fetal calf serum) were moved to a tube, and centrifugally washed three times with the above-mentioned medium without IL-12 and cell density was adjusted to 1×10^5/ml. The cell suspension was added in an amount of 100 μl each to a 96-well flat bottom plate containing a sample serially diluted in advance with an RPMI 1640 medium containing 50 μM of 2-mercaptoethanol and 10% FCS in an amount of 100 μl each. Subsequently, the mixture was charged into a 5% […] incubator of 37° C., and incubated for 48 hours. For final 6 hours, ^3H-TdR was pulsed (a substance adjusted to 370 kBq/ml in an RPMI 1640 medium containing 50 μM of 2-mercaptoethanol and 10% FCS was added in an amount of 50 μl each). The cells a harvested, and the radioactivity was measured using a β counter (Matrix 96, supplied by Packard).
The increase in the amounts of oxidative macrophages can easily be determined visually from the fact that almost no reaction product with monochlorobimane is observed, namely, a gray or blue image is provided, and the increase in the amounts of reductive macrophages from the fact that a red or yellow image is provided respectively. […] Meanwhile, the same examination was conducted by harvesting peritoneal exudate cells after 20 hours of the administration of 2 mg of N-acetylcystine (NAC).
as §1, §2, §3, §4

[3] = system: spontaneous inflammatory bowel disease; assay: Spontaneous inflammatory bowel disease in γc knock out mice (Example 13); assay type: in vivo; details: −/Y mice, 20 μg/h twice a week, 5 times in total; for survival rate, Day 31 / survival rate, Day 45: non-administration 33%; for occurrence rate of intestinal inflammation, Day 14 / occurrence rate of intestinal inflammation, Day 31: non-administration 83%; for occurrence rate of intestinal inflammation, Day 45: non-administration 100%
Text: In wild-type normal littermates of γc knock out mice (genetic phenotypes +/+, +/Y), no inflammatory bowel disease is observed at all under ordinary SPF breeding conditions. However, in γc knock out mice (genetic phenotypes, −/−, −/+ and −/Y), inflammatory bowel diseases occur very of ten. With respect to homo-knock out mice with −/− and −/Y phenotypes, approximately 70% thereof are spontaneously accompanied with inflammatory bowel diseases within 4 months. Also with respect to mice with +/− phenotype, approximately 60% thereof are spontaneously accompanied therewith within 6 months. That is, intestinal shortening, bloody stool, diarrhea, loose passage, anal prolapse and colonal hypertrophy are observed.
On the basis of the findings mentioned above, the effect of inhibiting spontaneous progression of inflammatory bowel disease in γc knock out mice was examined with respect to human Crohn disease and ulcerative colitis models. Saline, (NAC-OMe)2 or (NAC)2 (20 μg/h) was administered twice a week, 5 times in total, to each of 6 γc knock out male mice with […] and 6 γc knock out male mice with −/Y genotype which were inclined to have oxidative MΦ. It was examined whether or not the intestinal inflammation spontaneously progressed in −/Y was inhibited. In case of (NAC-OMe)2, on Day 14 of the administration, the occurrence rate of the non-administration −/Y group and the administration −/Y group was 83% to 25%; on Day 31, the occurrence rate was 83% to 25%, and the survival rate was 33% to 100%; and on Day 45, the occurrence rate was 100% to 25%, and the survival rate was 33% to 75%. In case of (NAC)2, it was 30, 40, 100, 40, 75% respectively.

[4] = system: reductive glutathione in MΦ; assay: GSH content in MΦ of JaK3 knock out mice by ACAS after free intake in city water (Example 6); assay type: in vivo; details: free intake of city water containing 1 mg/ml, 24 days
Protocol: Three-hundred microliters of a cell suspension adjusted concentration of 3×10^5 cells/ml in an RPMI 1640 medium (phenol red-free) were charged into a chambered coverglass (#136439, supplied by Nunc), and incubated at 37° C. for 2 hours using a CO2 incubator. The culture solution was washed with the medium, and 300 μl of monochlorobimane (supplied by Molecular Plobe) adjusted to 10 μM in the same medium were added thereto. The mixture was charged into a CO2 incubator of 37° C., and the reaction was conducted for 30 minutes. The fluorescent intensity was measured with ACAS. In ACAS, a UV laser was used.
Macrophages (MΦ) were prepared from knock out mice deficient in a molecule participating in a signal transduction system from a receptor, and the function of the redox system was analyzed. […] Methods applied in Example 2 was repeated. JaK3 knock out mice were divided into three groups. A control group was a group of usual city water free-intake. An NAC group was a group of free intake of city water containing 1 mg/ml of NAC. A GSH-OEt group was a group of free intake of city water containing 1 mg/ml of GSH-OEt. […]
Peritoneal cells of knock out mice which had undergone the respective treatments were harvested, and the GSH content in the cells was analyzed using ACAS with MCB. […]

Row | Structure (SMILES) | NO, amount produced relative to that of control group [1] [%] | IL-12, amount produced relative to that of control group [2] [%] | survival rate, Day 31 [3] [%] | survival rate, Day 45 [3] [%] | occurrence rate of intestinal inflammation, Day 14 [3] [%] | occurrence rate of intestinal inflammation, Day 31 [3] [%] | occurrence rate of intestinal inflammation, Day 45 [3] [%] | content of reductive glutathione in MΦ in comparison with control mice [4]
1 | CC(=O)N[C@@H](CSSC[C@H](NC(C)=O)C(=O)O)C(=O)O [(NAC)2, N,N′-diacetylcystine] | 18 | 15 | 100 | 75 | 30 | 40 | 40 | –
2 | COC(=O)[C@H](CSSC[C@H](NC(C)=O)C(=O)OC)NC(C)=O [(NAC-OMe)2, N,N′-diacetylcystine dimethyl ester] | 12 | 11 | 100 | 75 | 25 | 25 | 25 | –
3 | CCOC(=O)CNC(=O)[C@H](CS)NC(=O)CC[C@H](N)C(=O)O [GSH-OEt, glutathione monoethyl ester] | – | – | – | – | – | – | – | markedly increased
4 | CC(=O)N[C@@H](CS)C(=O)O [NAC, N-acetylcysteine, reference compound] | 172 | 920 | – | – | – | – | – | markedly increased
